{
  "source": "paper PMC8228075",
  "about": "“In Vitro and In Silico Characterization of G-Protein Coupled Receptor (GPCR) Targets of Phlorofucofuroeckol-A and Dieckol” (Marine Drugs, 2021)",
  "assay_type_in_all_cases": "cell-based",
  "key": {"[1]": {"target": "T1, Vasopressin 1A receptor (hV1AR) (Homo sapiens, UniProt P37288)", "T1 construct": "host or cells: CHO-V1AR cells", "T1 sequence (P37288 whole entry)": "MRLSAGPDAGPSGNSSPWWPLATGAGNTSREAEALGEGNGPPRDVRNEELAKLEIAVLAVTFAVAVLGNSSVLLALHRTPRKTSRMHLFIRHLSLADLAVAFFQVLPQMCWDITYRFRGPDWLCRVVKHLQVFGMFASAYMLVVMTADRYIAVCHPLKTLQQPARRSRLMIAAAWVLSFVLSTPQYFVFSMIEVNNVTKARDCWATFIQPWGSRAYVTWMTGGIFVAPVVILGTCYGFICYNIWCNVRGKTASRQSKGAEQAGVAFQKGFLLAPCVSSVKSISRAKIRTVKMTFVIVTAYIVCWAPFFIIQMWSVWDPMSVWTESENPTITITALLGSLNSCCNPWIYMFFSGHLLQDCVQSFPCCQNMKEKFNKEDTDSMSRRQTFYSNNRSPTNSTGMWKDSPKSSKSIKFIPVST", "experiment": "hV1AR functional antagonist assay (Ca2+ mobilization, CHO-V1AR cells)", "conditions": "for Antagonist Effect: % inhibition of control response to 10 nM AVP; for IC50: antagonist effect, mean ± SD, n = 3", "description": "(§1) The in-house assay protocol and experimental conditions are reported in our previous reports. The functional effect of dieckol and PFF-A was characterized based on their modulation effect on cytosolic Ca^2+ ion mobilization using a fluorimetric detection method or by measuring their effect on cAMP modulation using homogeneous time-resolved fluorescence (HTRF) detection.\nThen, fluorescent probe (Fluo4, Invitrogen) mixed with probenecid in HBSS buffer (Invitrogen, Carlsbad, CA, USA) supplemented with 20 mM HEPES, pH 7.4 (Invitrogen) was added to each well, allowing to equilibrate with the cells for 60 min at 37 °C, then 15 min at 22 °C."}, "[2]": {"target": "T2, Alpha-2C adrenergic receptor (hα2CAR) (Homo sapiens, UniProt P18825)", "T2 construct": "host or cells: CHO cells", "T2 sequence (P18825 1-462)": "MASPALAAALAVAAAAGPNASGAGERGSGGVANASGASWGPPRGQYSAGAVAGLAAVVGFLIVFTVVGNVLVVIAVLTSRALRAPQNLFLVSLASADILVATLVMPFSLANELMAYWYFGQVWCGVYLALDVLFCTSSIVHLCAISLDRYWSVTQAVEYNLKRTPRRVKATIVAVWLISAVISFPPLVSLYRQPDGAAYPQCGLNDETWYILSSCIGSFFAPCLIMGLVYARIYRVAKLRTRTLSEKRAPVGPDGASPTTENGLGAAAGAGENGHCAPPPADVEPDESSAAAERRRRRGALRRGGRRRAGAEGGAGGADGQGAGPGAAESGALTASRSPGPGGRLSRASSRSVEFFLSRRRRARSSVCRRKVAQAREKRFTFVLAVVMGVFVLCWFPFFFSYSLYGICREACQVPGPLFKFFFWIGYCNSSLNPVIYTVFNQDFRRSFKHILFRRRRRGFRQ", "experiment": "hα2CAR functional agonist assay (cAMP, HTRF, CHO cells)", "conditions": "for Agonist Effect: % of control response to 1 µM epinephrine; for EC50: agonist effect, mean ± SD, n = 3", "experimental": "as §1\n(§2) Functional activity of phlorotannins over hA2AR, hα2CAR, hCB1R, GLP-1R, and h5-HT1BR was determined by measuring their effects on cAMP production by the HTRF detection method using transected cells expressing human cloned receptors.\nAfter 10 min at 37 °C, the cells were lysed and the fluorescence acceptor (D2-labeled cAMP) and fluorescence donor (anti-cAMP antibody labeled with europium cryptate) were added."}, "[3]": {"target": "T3, Cannabinoid receptor 1 (CB1R) (Homo sapiens, UniProt P21554)", "T3 construct": "host or cells: CHO cells", "T3 sequence (P21554 whole entry)": "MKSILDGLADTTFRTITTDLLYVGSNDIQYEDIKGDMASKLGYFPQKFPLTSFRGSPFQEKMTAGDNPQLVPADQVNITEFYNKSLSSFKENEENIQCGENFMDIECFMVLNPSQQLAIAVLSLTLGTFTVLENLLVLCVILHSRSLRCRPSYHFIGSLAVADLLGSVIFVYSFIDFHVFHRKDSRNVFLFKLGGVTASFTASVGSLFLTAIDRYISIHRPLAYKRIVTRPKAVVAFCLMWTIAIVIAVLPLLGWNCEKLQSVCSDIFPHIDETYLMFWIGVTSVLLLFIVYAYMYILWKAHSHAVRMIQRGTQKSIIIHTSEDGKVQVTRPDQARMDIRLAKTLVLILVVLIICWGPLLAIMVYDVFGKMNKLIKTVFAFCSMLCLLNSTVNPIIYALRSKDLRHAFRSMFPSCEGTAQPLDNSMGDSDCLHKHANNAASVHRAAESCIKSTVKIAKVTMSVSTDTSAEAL", "experiment": "hCB1R functional antagonist assay (cAMP, HTRF, CHO cells)", "conditions": "CHO, read-out: Antagonist Effect", "experimental": "as §1, §2\nThe transfected CHO cells were suspended in HBSS buffer (Invitrogen) complemented with 20 mM HEPES (pH 7.4). […] After 30 min of incubation at 37 °C, the cells were lysed and the fluorescence acceptor (D2-labeled cAMP) and fluorescence donor (anti-cAMP antibody labeled with europium cryptate) were added."}, "[4]": {"target": "T4, Free fatty acid receptor 1 (FFA1R) (GPR40) (Homo sapiens, UniProt O14842)", "T4 construct": "host or cells: HEK-293 cells", "T4 sequence (O14842 whole entry)": "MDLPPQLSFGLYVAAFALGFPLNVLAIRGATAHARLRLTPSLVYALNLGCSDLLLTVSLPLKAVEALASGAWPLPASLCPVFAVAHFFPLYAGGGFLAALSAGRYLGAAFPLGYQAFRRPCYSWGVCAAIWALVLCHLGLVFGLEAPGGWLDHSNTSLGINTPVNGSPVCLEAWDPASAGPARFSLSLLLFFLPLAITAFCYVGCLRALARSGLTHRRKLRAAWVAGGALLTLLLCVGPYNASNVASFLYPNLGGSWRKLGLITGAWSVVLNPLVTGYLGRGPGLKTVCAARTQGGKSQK", "experiment": "FFA1R/GPR40 functional agonist assay (Ca2+ mobilization, HEK-293 cells)", "conditions": "100 µM; % of control response to 100 µM linoleic acid", "experimental": "The in-house assay protocol and experimental conditions are reported in our previous reports. […] Then, the mixture of fluorescent probe (Fluo4 Direct, Invitrogen) and probenecid in HBSS buffer (Invitrogen) complemented with 20 mM Hepes (Invitrogen) (pH 7.4) was added into each well and incubated for 60 min at 37 °C, followed by 15 min incubation at 22 °C. Thereafter, the assay plates were positioned in a CellLux microplate reader (PerkinElmer, Waltham, MA, USA) which was used for the addition of the following: For agonist assay-test compound, reference agonist, or HBSS buffer (basal control). Linoleic acid at 100 μM was added in separate assay wells for stimulated control measurement."}, "[5]": {"target": "T5, δ-opioid receptor (hδ-OPR) (Homo sapiens, UniProt P41143)", "T5 construct": "host or cells: rat basophil leukemia cells", "T5 sequence (P41143 whole entry)": "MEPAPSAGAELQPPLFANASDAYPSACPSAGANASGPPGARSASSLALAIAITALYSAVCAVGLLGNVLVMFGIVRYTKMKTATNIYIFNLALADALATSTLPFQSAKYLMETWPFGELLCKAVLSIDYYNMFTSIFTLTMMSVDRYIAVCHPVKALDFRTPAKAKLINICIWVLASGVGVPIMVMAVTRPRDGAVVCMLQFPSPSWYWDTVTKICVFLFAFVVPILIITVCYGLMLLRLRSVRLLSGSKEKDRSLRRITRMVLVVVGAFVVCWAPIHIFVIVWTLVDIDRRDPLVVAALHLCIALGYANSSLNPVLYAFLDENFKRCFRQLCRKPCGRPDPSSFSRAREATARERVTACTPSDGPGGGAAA", "experiment": "hδ-OPR functional agonist assay (Ca2+ mobilization, rat basophil leukemia cells)", "conditions": "100 µM; % of control response to 1 µM DPDPE", "description": "as §1\nThereafter, a mixture of fluorescent probe (Fluo8, AAT Bioquest) and probenecid in HBSS buffer (Invitrogen) complemented with 20 mM Hepes (Millipore) (pH 7.4) was added and plates were incubated for 60 min at 30 °C. Then, the assay plates were positioned in a FlipR Tetra microplate reader (Molecular Device, San Jose, CA, USA) for the addition of the test compound, reference agonist/antagonist, or HBSS buffer (basal control). Change in fluorescence intensity that varies proportionally to the free cytosolic Ca^2+ ion concentration was measured."}, "h5-HT1BR": {"target": "h5-HT1BR (Homo sapiens, UniProt P28222)", "sequence (P28222 whole entry)": "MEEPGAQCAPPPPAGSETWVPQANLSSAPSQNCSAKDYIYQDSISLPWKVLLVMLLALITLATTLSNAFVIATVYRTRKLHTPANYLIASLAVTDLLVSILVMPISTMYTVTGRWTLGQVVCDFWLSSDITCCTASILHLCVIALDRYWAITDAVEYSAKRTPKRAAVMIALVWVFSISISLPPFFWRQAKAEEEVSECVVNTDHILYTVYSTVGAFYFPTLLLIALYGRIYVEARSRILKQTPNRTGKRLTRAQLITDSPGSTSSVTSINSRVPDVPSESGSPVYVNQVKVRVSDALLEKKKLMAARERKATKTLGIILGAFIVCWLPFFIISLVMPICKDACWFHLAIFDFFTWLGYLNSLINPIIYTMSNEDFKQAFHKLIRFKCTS", "experiment": "h5-HT1BR functional antagonist assay (cAMP, HTRF, Hela cells)", "conditions": "HeLa, read-out: Antagonist Effect", "experimental": "as §1, §2\nConcisely, a plasmid containing the GPCR gene of interest (5-HT1B) was transfected into Hela cells. The resulting stable transfectants were suspended in HBSS buffer (Invitrogen, Carlsbad, CA, USA) containing 20 mM HEPES (pH 7.4), […], 1 mg/mL glucose, and 500 μM IBMX and distributed in microplates at a density of 2 × 10^4 cells/well. […] Then, the cells were lysed and a fluorescence acceptor (D2-labeled cAMP) and fluorescence donor (anti-cAMP antibody with europium cryptate) were added following 60 min incubation at RT."}, "[6]": {"conditions": "50 µM, dieckol value flagged as apparent inhibition (at least 25% agonist effect)"}, "[7]": {"conditions": "100 µM, values flagged as apparent inhibition (at least 25% agonist effect)"}},
  "note": "Values joined by “and” are separate entries in the source; they are usually repeats but may differ in a detail not shown here. Equal values may be shown once. Marks after values point to notes of the source that are not given here.",
  "data": [
    {"smiles": "Oc1cc(O)cc(Oc2c(O)cc(O)c3c2Oc2c(O)cc(Oc4c(O)cc(Oc5c(O)cc(O)c6c5Oc5c(O)cc(O)cc5O6)cc4O)cc2O3)c1", "note": "[Dieckol, dieckol]", "values": [
      {"measurement": "Antagonist Effect", "setting": "[1]; [6]", "result": "41.53 ± 7.39 ^c %"},
      {"measurement": "Antagonist Effect", "setting": "[1]; [7]", "result": "57.77 ± 0.32 ^b % and 57.77 ± 0.32 ^c %"},
      {"measurement": "IC50", "setting": "[1]", "result": "82.7 ± 8.73", "unit": "µM"},
      {"measurement": "inhibition at 100 µM", "setting": "[1]; read-out: Antagonist Effect", "result": "57.77 ± 0.32", "unit": "%"},
      {"measurement": "inhibition at 150 µM", "setting": "[1]; read-out: Antagonist Effect", "result": "68.8 ± 0.85", "unit": "%"},
      {"measurement": "Agonist Effect", "setting": "[2]; 100 µM", "result": "52.4 ± 4.24", "unit": "%"},
      {"measurement": "Agonist Effect", "setting": "[2]; 150 µM", "result": "73.0 ± 6.42", "unit": "%"},
      {"measurement": "Agonist Effect", "setting": "[2]; 200 µM", "result": "74.77 ± 6.60", "unit": "%"},
      {"measurement": "EC50", "setting": "[2]", "result": "98.8 ± 7.71", "unit": "µM"},
      {"measurement": "inhibition at 100 µM", "setting": "[3]", "result": "159 ± 17.8", "unit": "%"},
      {"measurement": "Agonist Effect", "setting": "[4]", "result": "0.2 ± 1.56", "unit": "%"},
      {"measurement": "Agonist Effect", "setting": "[5]", "result": "−5.7 ± 0.14", "unit": "%"},
      {"measurement": "inhibition at 100 µM", "setting": "h5-HT1BR", "result": "-7.3 ± 3.96", "unit": "%"},
      {"measurement": "inhibition at 200 µM", "setting": "h5-HT1BR", "result": "-8.1 ± 0.85", "unit": "%"}
    ]},
    {"smiles": "Oc1cc(O)cc(Oc2c(O)cc(O)c3c2Oc2c(O)cc4oc5c(Oc6cc(O)cc(O)c6)c(O)cc(O)c5c4c2O3)c1", "note": "[PFF-A, phlorofucofuroeckol-A]", "values": [
      {"measurement": "Antagonist Effect", "setting": "[1]; [6]", "result": "52.80 ± 8.09", "unit": "%"},
      {"measurement": "Antagonist Effect", "setting": "[1]; [7]", "result": "56.90 ± 5.37 ^c %"},
      {"measurement": "Antagonist Effect", "setting": "[1]; 100 µM, values flagged as apparent inhibition (at least 25% agonist effect), listed as Phlorofucofuroeckol-A", "result": "56.90 ± 5.37 ^b %"},
      {"measurement": "IC50", "setting": "[1]", "result": "42.25 ± 0.41", "unit": "µM"},
      {"measurement": "inhibition at 25 µM", "setting": "[1]; read-out: Antagonist Effect", "result": "35.7 ± 3.88", "unit": "%"},
      {"measurement": "inhibition at 100 µM", "setting": "[1]; read-out: Antagonist Effect", "result": "56.9 ± 5.37", "unit": "%"},
      {"measurement": "inhibition at 150 µM", "setting": "[1]; read-out: Antagonist Effect", "result": "56.1 ± 4.72", "unit": "%"},
      {"measurement": "Agonist Effect", "setting": "[2]; 12.5 µM", "result": "22.03 ± 6.61", "unit": "%"},
      {"measurement": "Agonist Effect", "setting": "[2]; 25 µM", "result": "55% and 55.0 ± 9.13%"},
      {"measurement": "Agonist Effect", "setting": "[2]; 50 µM", "result": "62.27 ± 6.53", "unit": "%"},
      {"measurement": "Agonist Effect", "setting": "[2]; 100 µM", "result": "83.8 ± 0.07", "unit": "%"},
      {"measurement": "EC50", "setting": "[2]", "result": "23.7 ± 3.32", "unit": "µM"},
      {"measurement": "inhibition at 100 µM", "setting": "[3]", "result": "21.4 ± 0.49", "unit": "%"},
      {"measurement": "Agonist Effect", "setting": "[4]", "result": "−1.0 ± 0.07", "unit": "%"},
      {"measurement": "Agonist Effect", "setting": "[5]", "result": "14.7 ± 7.35", "unit": "%"},
      {"measurement": "inhibition at 100 µM", "setting": "h5-HT1BR", "result": "-18.5 ± 2.69", "unit": "%"},
      {"measurement": "inhibition at 200 µM", "setting": "h5-HT1BR", "result": "-35.5 ± 4.38", "unit": "%"}
    ]}
  ]
}
